Active and inactive are the calls of the source. No cut-off for these calls is given here.
Assays:
[1] = biological target: Megakaryocyte-associated tyrosine-protein kinase (Homo sapiens) (UniProt P42679); experiment: Inhibition of MATK(h) at 10.0 µM in the Eurofins Kinase panel; conditions: Compound concentration 10.0 uM
[2] = biological target: Mitogen-activated protein kinase kinase kinase 3 (Homo sapiens) (UniProt Q99759); experiment: Inhibition of MEKK3(h) at 10.0 µM in the Eurofins Kinase panel; conditions: Compound concentration 10.0 uM
[3] = biological target: MAP kinase-activated protein kinase 5 (Homo sapiens) (UniProt Q8IW41); experiment: Inhibition of PRAK(h) at 10.0 µM in the Eurofins Kinase panel; conditions: Compound concentration 10.0 uM
[4] = biological target: Death-associated protein kinase 3 (Homo sapiens) (UniProt O43293); experiment: Inhibition of ZIPK(h) at 10.0 µM in the Eurofins Kinase panel; conditions: Compound concentration 10.0 uM
[5] = biological target: Focal adhesion kinase 1 (Homo sapiens) (UniProt Q05397); experiment: Inhibition of FAK(h) at 10.0 µM in the Eurofins Kinase panel; conditions: Compound concentration 10.0 uM
[6] = biological target: 5-hydroxytryptamine receptor 1B (Homo sapiens) (UniProt P28222); conditions: Compound concentration 10.0 uM
Chain of 5-hydroxytryptamine receptor 1B (Homo sapiens) (P28222 whole entry): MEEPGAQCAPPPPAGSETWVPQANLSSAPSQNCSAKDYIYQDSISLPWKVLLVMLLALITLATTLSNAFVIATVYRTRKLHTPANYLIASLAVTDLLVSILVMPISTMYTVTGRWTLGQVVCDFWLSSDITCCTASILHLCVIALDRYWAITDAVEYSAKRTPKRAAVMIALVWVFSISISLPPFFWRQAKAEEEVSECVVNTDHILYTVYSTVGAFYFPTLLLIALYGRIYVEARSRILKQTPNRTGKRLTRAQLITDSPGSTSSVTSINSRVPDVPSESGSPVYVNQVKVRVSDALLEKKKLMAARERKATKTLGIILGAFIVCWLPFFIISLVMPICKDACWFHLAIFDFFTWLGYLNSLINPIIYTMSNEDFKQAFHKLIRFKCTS

[7] = biological target: Macrophage-stimulating protein receptor (Homo sapiens) (UniProt Q04912); experiment: Inhibition of Ron(h) at 10.0 µM in the Eurofins Kinase panel; conditions: Compound concentration 10.0 uM
[8] = biological target: Homeodomain-interacting protein kinase 3 (Homo sapiens) (UniProt Q9H422); experiment: Inhibition of HIPK3(h) at 10.0 µM in the Eurofins Kinase panel; conditions: Compound concentration 10.0 uM
[9] = biological target: Ephrin type-A receptor 4 (Homo sapiens) (UniProt P54764); experiment: Inhibition of EphA4(h) at 10.0 µM in the Eurofins Kinase panel; conditions: Compound concentration 10.0 uM
[10] = biological target: T1, Muscarinic acetylcholine receptor M2 (Homo sapiens) (UniProt P08172); conditions: Compound concentration 10.0 uM
T1 sequence (whole entry): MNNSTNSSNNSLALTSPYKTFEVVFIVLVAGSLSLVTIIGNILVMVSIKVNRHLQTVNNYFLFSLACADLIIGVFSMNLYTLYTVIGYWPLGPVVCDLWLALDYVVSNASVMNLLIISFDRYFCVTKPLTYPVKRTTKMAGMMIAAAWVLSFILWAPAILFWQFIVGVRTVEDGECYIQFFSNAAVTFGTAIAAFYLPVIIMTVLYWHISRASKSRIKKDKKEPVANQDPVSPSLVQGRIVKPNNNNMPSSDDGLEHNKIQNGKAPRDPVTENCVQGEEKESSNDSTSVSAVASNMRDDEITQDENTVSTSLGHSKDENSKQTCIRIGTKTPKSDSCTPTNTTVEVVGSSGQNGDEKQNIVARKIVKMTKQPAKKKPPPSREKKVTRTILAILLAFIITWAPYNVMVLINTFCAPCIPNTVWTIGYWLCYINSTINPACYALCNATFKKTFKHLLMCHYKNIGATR

[11] = biological target: Calcium/calmodulin-dependent protein kinase type 1G (Homo sapiens) (UniProt Q96NX5); experiment: Inhibition of CaMKIgamma(h) at 10.0 µM in the Eurofins Kinase panel; conditions: Compound concentration 10.0 uM
[12] = biological target: Proto-oncogene tyrosine-protein kinase Src (Homo sapiens) (UniProt P12931); experiment: Inhibition of cSRC(h) at 10.0 µM in the Eurofins Kinase panel; conditions: Compound concentration 10.0 uM
[13] = biological target: Ephrin type-A receptor 2 (Homo sapiens) (UniProt P29317); experiment: Inhibition of EphA2(h) at 10.0 µM in the Eurofins Kinase panel; conditions: Compound concentration 10.0 uM
[14] = biological target: Testis-specific serine/threonine-protein kinase 2 (Homo sapiens) (UniProt Q96PF2); experiment: Inhibition of TSSK2(h) at 10.0 µM in the Eurofins Kinase panel; conditions: Compound concentration 10.0 uM
[15] = biological target: Cyclin-G-associated kinase (Homo sapiens) (UniProt O14976); experiment: Inhibition of GAK(h) at 10.0 µM in the Eurofins Kinase panel; conditions: Compound concentration 10.0 uM
Vasopressin V1a receptor = Vasopressin V1a receptor (Homo sapiens, UniProt P37288); experiment: Inhibition of Vasopressin V1A at 10.0 µM in the Eurofins-Panlabs selectivity screen
[16] = biological target: D(3) dopamine receptor (Homo sapiens) (UniProt P35462); conditions: Compound concentration 10.0 uM
Chain of D(3) dopamine receptor (Homo sapiens) (P35462 whole entry): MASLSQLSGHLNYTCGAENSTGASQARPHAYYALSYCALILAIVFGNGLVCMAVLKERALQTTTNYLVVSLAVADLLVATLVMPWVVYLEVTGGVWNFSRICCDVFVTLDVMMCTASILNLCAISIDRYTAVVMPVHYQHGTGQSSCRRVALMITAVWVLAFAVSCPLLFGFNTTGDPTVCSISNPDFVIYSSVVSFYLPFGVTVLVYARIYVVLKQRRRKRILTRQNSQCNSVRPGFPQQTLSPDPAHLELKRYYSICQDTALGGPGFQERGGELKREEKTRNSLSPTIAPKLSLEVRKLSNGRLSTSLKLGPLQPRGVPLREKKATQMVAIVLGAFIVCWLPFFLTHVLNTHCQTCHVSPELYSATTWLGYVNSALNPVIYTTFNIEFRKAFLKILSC

[17] = biological target: Serine/threonine-protein kinase MAK (Homo sapiens) (UniProt P20794); experiment: Inhibition of MAK(h) at 10.0 µM in the Eurofins Kinase panel; conditions: Compound concentration 10.0 uM
[18] = biological target: T2, Muscarinic acetylcholine receptor M1 (Homo sapiens) (UniProt P11229); conditions: Compound concentration 10.0 uM
T2 sequence (whole entry): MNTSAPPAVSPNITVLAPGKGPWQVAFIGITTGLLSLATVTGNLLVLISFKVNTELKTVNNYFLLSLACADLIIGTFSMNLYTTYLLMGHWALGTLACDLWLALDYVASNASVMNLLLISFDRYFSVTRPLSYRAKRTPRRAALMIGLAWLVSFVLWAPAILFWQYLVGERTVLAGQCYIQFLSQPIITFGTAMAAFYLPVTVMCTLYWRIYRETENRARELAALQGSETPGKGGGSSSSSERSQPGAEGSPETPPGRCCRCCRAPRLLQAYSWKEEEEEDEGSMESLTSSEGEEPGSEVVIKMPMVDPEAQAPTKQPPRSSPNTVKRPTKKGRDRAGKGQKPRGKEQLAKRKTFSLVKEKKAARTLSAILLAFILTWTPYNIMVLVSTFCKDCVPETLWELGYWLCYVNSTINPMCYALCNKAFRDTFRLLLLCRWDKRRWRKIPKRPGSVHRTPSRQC

[19] = biological target: Serine/threonine-protein kinase MRCK alpha (Homo sapiens) (UniProt Q5VT25); experiment: Inhibition of MRCKalpha(h) at 10.0 µM in the Eurofins Kinase panel; conditions: Compound concentration 10.0 uM
Chain of Serine/threonine-protein kinase MRCK alpha (Homo sapiens) (Q5VT25 whole entry): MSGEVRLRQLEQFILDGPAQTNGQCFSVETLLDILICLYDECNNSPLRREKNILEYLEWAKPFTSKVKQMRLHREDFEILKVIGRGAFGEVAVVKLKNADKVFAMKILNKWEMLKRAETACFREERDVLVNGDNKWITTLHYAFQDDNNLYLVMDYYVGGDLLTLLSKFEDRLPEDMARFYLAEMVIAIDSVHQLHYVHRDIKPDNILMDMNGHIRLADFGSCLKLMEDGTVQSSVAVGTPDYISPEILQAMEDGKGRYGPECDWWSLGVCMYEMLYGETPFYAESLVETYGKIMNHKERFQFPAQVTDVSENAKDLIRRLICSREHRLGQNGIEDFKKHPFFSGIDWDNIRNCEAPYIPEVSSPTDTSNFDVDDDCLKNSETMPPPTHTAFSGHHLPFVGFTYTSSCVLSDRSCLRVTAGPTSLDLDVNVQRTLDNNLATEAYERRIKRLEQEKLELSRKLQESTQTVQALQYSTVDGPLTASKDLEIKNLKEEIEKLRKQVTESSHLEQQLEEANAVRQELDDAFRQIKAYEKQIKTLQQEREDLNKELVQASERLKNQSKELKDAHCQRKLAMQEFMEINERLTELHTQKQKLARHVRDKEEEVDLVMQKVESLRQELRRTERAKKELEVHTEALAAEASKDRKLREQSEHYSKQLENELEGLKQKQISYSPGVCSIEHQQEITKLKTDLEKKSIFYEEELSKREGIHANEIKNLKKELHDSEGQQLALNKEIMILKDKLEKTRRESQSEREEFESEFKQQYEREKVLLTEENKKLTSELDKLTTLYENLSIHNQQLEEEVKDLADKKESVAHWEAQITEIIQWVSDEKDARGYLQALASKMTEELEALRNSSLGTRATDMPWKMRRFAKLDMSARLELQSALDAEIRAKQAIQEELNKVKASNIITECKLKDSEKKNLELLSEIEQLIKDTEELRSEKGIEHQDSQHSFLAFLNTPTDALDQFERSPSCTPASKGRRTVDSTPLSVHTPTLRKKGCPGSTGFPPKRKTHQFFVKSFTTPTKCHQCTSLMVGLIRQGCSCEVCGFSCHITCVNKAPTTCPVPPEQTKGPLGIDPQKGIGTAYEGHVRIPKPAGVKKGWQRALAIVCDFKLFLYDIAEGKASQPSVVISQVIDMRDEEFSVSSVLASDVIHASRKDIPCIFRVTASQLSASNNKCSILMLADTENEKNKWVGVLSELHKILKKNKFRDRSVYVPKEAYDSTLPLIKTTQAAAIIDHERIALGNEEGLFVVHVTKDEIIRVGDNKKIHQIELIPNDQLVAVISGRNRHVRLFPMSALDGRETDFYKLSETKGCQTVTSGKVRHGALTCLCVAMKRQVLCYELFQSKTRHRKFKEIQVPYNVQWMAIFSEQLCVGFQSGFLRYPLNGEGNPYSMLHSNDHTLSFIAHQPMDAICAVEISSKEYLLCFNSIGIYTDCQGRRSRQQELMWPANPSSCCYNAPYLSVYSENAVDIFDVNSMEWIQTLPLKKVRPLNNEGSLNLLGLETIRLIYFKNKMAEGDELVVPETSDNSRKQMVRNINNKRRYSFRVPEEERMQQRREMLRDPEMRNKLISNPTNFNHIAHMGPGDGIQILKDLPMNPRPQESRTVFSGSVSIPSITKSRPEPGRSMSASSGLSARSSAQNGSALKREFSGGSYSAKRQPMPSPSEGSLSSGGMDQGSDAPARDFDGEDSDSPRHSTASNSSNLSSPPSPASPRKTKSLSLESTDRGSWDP

[20] = biological target: Serine/threonine-protein kinase PLK2 (Homo sapiens) (UniProt Q9NYY3); experiment: Inhibition of Snk(h) at 10.0 µM in the Eurofins Kinase panel; conditions: Compound concentration 10.0 uM
[21] = biological target: Serine/threonine-protein kinase B-raf (Homo sapiens) (UniProt P15056); experiment: Inhibition of B-Raf(h) at 10.0 µM in the Eurofins Kinase panel; conditions: Compound concentration 10.0 uM
[22] = biological target: Protein kinase C alpha type (Homo sapiens) (UniProt P17252); experiment: Inhibition of PKCalpha(h) at 10.0 µM in the Eurofins Kinase panel; conditions: Compound concentration 10.0 uM
[23] = biological target: Serine/threonine-protein kinase Nek3 (Homo sapiens) (UniProt P51956); experiment: Inhibition of NEK3(h) at 10.0 µM in the Eurofins Kinase panel; conditions: Compound concentration 10.0 uM
Chain of Serine/threonine-protein kinase Nek3 (Homo sapiens) (P51956 whole entry): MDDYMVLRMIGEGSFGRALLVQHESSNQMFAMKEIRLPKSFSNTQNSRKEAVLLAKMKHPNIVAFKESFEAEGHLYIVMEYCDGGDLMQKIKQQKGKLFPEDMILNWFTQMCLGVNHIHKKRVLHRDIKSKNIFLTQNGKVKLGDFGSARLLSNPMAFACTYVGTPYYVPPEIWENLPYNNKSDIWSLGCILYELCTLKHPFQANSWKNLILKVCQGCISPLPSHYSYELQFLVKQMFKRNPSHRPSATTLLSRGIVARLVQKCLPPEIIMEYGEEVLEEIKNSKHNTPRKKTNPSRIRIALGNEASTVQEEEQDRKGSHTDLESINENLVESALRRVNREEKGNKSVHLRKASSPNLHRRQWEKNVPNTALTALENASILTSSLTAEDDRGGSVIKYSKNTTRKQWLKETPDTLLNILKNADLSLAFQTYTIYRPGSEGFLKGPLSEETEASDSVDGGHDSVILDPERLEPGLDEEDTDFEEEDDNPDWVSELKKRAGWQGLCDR

[24] = biological target: Dual specificity mitogen-activated protein kinase kinase 6 (Homo sapiens) (UniProt P52564); experiment: Inhibition of MKK6(h) at 10.0 µM in the Eurofins Kinase panel; conditions: Compound concentration 10.0 uM
Chain of Dual specificity mitogen-activated protein kinase kinase 6 (Homo sapiens) (P52564 whole entry): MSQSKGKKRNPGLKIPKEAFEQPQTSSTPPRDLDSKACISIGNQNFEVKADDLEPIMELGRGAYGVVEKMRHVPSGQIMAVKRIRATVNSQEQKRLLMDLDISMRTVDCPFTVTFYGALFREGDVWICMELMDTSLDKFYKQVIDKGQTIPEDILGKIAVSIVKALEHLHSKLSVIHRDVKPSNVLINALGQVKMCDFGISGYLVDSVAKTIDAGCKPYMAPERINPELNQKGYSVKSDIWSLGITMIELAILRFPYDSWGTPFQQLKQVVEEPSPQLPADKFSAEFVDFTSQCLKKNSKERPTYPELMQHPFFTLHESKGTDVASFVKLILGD

[25] = biological target: Myosin light chain kinase (Homo sapiens) (UniProt Q32MK0); experiment: Inhibition of MLCK(h) at 10.0 µM in the Eurofins Kinase panel; conditions: Compound concentration 10.0 uM
[26] = biological target: Serine/threonine-protein kinase haspin (Homo sapiens) (UniProt Q8TF76); experiment: Inhibition of Haspin(h) at 10.0 µM in the Eurofins Kinase panel; conditions: Compound concentration 10.0 uM
Chain of Serine/threonine-protein kinase haspin (Homo sapiens) (Q8TF76 whole entry): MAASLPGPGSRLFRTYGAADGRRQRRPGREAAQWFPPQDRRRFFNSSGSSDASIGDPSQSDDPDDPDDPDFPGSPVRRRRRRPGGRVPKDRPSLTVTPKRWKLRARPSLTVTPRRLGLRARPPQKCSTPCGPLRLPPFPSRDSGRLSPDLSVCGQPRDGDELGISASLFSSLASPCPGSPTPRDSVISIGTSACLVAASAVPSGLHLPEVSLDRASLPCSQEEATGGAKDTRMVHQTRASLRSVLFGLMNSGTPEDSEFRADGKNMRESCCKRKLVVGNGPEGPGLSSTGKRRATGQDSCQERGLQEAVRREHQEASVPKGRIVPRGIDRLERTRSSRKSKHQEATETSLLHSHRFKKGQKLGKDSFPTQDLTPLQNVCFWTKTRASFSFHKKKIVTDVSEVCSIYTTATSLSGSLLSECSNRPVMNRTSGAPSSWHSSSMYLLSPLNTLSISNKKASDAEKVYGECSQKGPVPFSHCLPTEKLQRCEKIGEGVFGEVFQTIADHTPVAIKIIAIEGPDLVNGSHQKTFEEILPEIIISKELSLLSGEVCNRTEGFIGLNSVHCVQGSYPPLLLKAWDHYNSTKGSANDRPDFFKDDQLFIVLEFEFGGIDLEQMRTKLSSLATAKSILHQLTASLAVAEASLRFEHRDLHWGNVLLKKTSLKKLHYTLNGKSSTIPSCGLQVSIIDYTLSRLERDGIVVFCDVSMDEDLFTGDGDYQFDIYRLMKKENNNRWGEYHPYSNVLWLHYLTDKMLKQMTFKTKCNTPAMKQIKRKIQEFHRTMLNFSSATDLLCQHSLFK

[27] = biological target: Activin receptor type-1 (Homo sapiens) (UniProt Q04771); experiment: Inhibition of ALK2(h) at 10.0 µM in the Eurofins Kinase panel; conditions: Compound concentration 10.0 uM
[28] = biological target: Sodium-dependent noradrenaline transporter (Homo sapiens, UniProt P23975); conditions: Compound concentration 10.0 uM

Row | SMILES | inhibition [1] [%] | inhibition [2] [%] | inhibition [3] [%] | inhibition [4] [%] | inhibition [5] [%] | inhibition [6] [%] | inhibition [7] [%] | inhibition [8] [%] | inhibition [9] [%] | inhibition [10] [%] | inhibition [11] [%] | inhibition [12] [%] | inhibition [13] [%] | inhibition [14] [%] | inhibition [15] [%] | Ki (Vasopressin V1a receptor) | inhibition [16] [%] | inhibition [17] [%] | inhibition [18] [%] | inhibition [19] [%] | other results
1 | O=c1n(Cc2cncn2-c2cccc(Cl)c2)nc(-c2ccc(Cl)cc2)n1C[C@H](O)C(F)(F)F | 4.16 | 7.5 | 9.81 | 1.49 | -5.35 | 7.15 | -7.87 | 2.57 | 0.23 | 17 | 0.71 | 0.88 | -5.2 | 2.9 | 0.33 | > 10 µM (not active) | 18.3 | 3.99 | 1 | -4.95 | inhibition [20]: 0.93%; inhibition [21]: -2.97%; inhibition [22]: 2.18%; inhibition [23]: 5.44%; inhibition [24]: 5.77%; inhibition [25]: 1.74%; inhibition [26]: -2.75%; inhibition [27]: -2.29%; inhibition [28]: 8%
2 | C[C@H](O)c1nc(Cn2nc(-c3ccc(Cl)cc3)n(C[C@H](O)C(F)(F)F)c2=O)nn1-c1cccc(Cl)c1 [PECAVAPTAN] | 0.84 | 2.27 | 11.4 | -5.08 | -3.02 | 4.87 | -9.41 | 3.3 | -0.37 | 7 | -0.43 | -5.76 | -2 | -2.02 | 10.4 | 0.0005 µM (active) | 19.7 | 5.13 | -5 | -2.43 | inhibition [20]: -4.51%; inhibition [21]: -4.03%; inhibition [22]: 1.13%; inhibition [23]: 61%; inhibition [24]: 7.34%; inhibition [25]: 1.69%; inhibition [26]: 2.09%; inhibition [27]: -2.51%; inhibition [28]: 62%

From ChEMBL document CHEMBL5463729, “Data for DCP probe BAY 1753011” (2023)
